Marks after values point to notes of the source that are not given here.
Tests used:
Assay type in all cases: in vivo
[1] = Endometrial epithelium thickness in OVX nude mice after 161 days of antiestrogen (Example 8); conditions: for inhibition of the stimulatory effect of estrone on epithelial height: 50 μg daily oral, estrone stimulation; for height of uterine epithelial cells, % of the OVX control group value: 200 μg daily, absence of estrone
Source text: The 17 groups included two control groups (OVX and OVX+Estrone), seven groups supplemented with an estrone implant and treated with an antiestrogen and eight other groups that received an antiestrogen alone. The estrone implants were then removed from the animals in the ovariectomized control group (OVX) and in groups that were to receive the antiestrogen alone. […] Tamoxifen was purchased from […]) while toremifene citrate was purchased from Orion (Espoo, Finland). […] The antiestrogen suspensions at the appropriate concentration were prepared each month, stored at 4° C. and used under constant agitation. Powder stock were hermetically stored at 4° C. […] After 161 days of treatment, the remaining animals were anesthetized with isoflurane and killed by exsanguination. […] The uteri were prepared to evaluate endometrial thickness by image analysis performed with Image Pro-Plus (Media Cybernetics, Maryland, USA). […] Hematoxylin- and eosin-stained sections of mice uteri were analyzed. […] Mean epithelial cell height was measured in all animals of each group.

[2] = system: ZR-75-1 human breast cancer xenografts; test: Growth and response of human ZR-75-1 breast tumors in OVX nude mice, 7 antiestrogens for 161 days with or without estrone (Example 8); conditions: for increase of average tumor size over baseline (agonistic effect) / tumors in the progression category, % / tumors in the progression category, number of total: absence of estrone, 200 μg daily; for increase of average tumor size over baseline (agonistic effect) / progressing tumors, % of tumors / progressing tumors, number of total / tumors in the progression category, % / tumors in the progression category, number of total: 161 days; for average tumor size above pretreatment values: estrone-stimulated, 50 μg oral daily, 23 weeks; for progressing tumors, % of tumors / progressing tumors, number of total: estrone-supplemented, 50 μg daily
Experimental: ZR-75-1 human breast cancer cells were obtained from the American Type Culture Collection (Rockville, Md.) and cultured in phenol red-free RPMI-1640 medium. […] (Saint-Constant, Québec, Canada). The mice (5 per cage) were housed in vinyl cages equipped with air filter lids, which were kept in laminar airflow hoods and maintained under pathogen-limiting conditions. The photoperiod was 12 hours of light and 12 hours of darkness (lights on at 07:15). Cages, bedding and food (Agway Pro-Lab R-M-H Diet #4018) were autoclaved before use. Water was autoclaved and provided ad libitum. Bilateral ovariectomy was performed under isoflurane-induced anesthesia. […] Randomization and treatments were started one week later. […] The estrone implants were then removed from the animals in the ovariectomized control group (OVX) and in groups that were to receive the antiestrogen alone. […] Tamoxifen was purchased from […]) while toremifene citrate was purchased from Orion (Espoo, Finland). […] The antiestrogen suspensions at the appropriate concentration were prepared each month, stored at 4° C. and used under constant agitation. Powder stock were hermetically stored at 4° C. […] Two perpendicular diameters were recorded and tumor area (mm2) was calculated using the formula: […] Tumor response was assessed at the end of the study or at death of each animal, if it occurred during the course of the experiment. In this case, only data of mice that survived for at least half of the study ([…]) were used in the tumor response analysis.

[3] = Uterine and vaginal weight in ovariectomized BALB/c mice treated orally for 9 days with or without estrone (Example 3)
Experimental: Female BALB/c mice (BALB/cAnNCrlBR) weighing 18-20 g were obtained from Charles-River, Inc. (St-Constant, Quebec, Canada) and housed 5 per cage in a temperature (23±1° C.)- and light (12 h light/day, lights on at 7:15)-controlled environment. The mice were fed rodent chow and tap water ad libitum. The animals were ovariectomized (OVX) under Isoflurane anesthesia via bilateral flank incisions and randomly assigned to groups of 10 animals. Ten mice were kept intact as controls.
In the second experiment (Table 6), TSE 424 was administered orally by gavage once daily at doses of 1, 3, 10 or 30 μg/animal for 9 days, starting 2 days after ovariectomy. In both experiments, to evaluate the antiestrogenic activity, treatment with estrone (E1, […], s.c. injection, twice daily) was started 5 days post-ovariectomy and was administered for a 6 day-period. Compounds were dissolved in ethanol (4% final concentration) and administered in 0.4% methylcellulose. Mice in the intact and OVX control groups received the vehicle alone (4% ETOH-0.4% methylcellulose) during the 9-day period. The animals were killed by exsanguination at the abdominal aorta on the 11th morning following ovariectomy. The uteri and vagina were rapidly dissected, weighed, and kept in 10% buffered formalin for further histologic examination.

[4] = OVX + E1, antiestrogen 50 μg daily
[5] = OVX without E1, antiestrogen 200 μg daily
[6] = OVX mice + estrone, any dose used (1, 3, 10 μg)
[7] = OVX mice, absence of estrone, 10 μg daily (no-effect statements: 1 μg and 10 μg)

| Compound | inhibition of the stimulatory effect of estrone on epithelial height [1] | height of uterine epithelial cells, % of the OVX control group value [1] | ENDOMETRIAL EPITHELIUM THICKNESS (μm) ± SEM [1, 4] | ENDOMETRIAL EPITHELIUM THICKNESS (μm) ± SEM [1, 5] | increase of average tumor size over baseline (agonistic effect) [2] | average tumor size above pretreatment values [2] | progressing tumors, % of tumors [2] | progressing tumors, number of total [2] | inhibition of estrone-stimulated uterine weight [3, 6] | inhibition of vaginal weight (estrone-stimulated) [3, 6] | stimulation of uterine weight (estrogenic effect) [3, 7] | stimulation of vaginal weight (estrogenic effect) [3, 7] | tumors in the progression category, % [2] | tumors in the progression category, number of total [2] |
| --- | --- | --- | --- | --- | --- | --- | --- | --- | --- | --- | --- | --- | --- | --- |
| CC/C(=C(/c1ccc(OCCN(C)C)cc1)c1cccc(O)c1)c1ccccc1 [Droloxifene, (E)-3-[1-[4-[2-(Dimethylamino)ethoxy]phenyl]-2-phenyl-1-butenyl] phenol] | 17% | 101% | 36.71^b,d ± 0.12 μm | 18.50 ± 0.07 μm | did not significantly change | 478% | 100% | 23 of 23 |  |  |  |  |  |  |
| Oc1ccc2c(c1)CC[C@@H](c1ccccc1)[C@H]2c1ccc(OCCN2CCCC2)cc1 (single isomer, unassigned) [inactive enantiomer of lasofoxifene] |  |  |  |  |  |  |  |  | no inhibitory effect | no inhibitory effect | no stimulatory effect | no stimulatory effect |  |  |
| CC/C(=C(\c1ccc(I)cc1)c1ccc(OCCN2CCCC2)cc1)c1ccccc1 [Idoxifene, (E)-1-[2-[4-[1-(4-Iodophenyl)-2-phenyl-1-butenyl]phenoxy]ethyl]pyrrolidine] | 50% | 176% | 29.35^b,d ± 0.05 μm | 32.14^b,d ± 0.05 μm | 125% | 86% | 71% | 20 of 28 |  |  |  |  | 33% | 8 of 24 |
| CN(C)CCOc1ccc(/C(=C(/CCCl)c2ccccc2)c2ccccc2)cc1 [Toremifene, (Z)-2-[4-(4-Chloro-1,2-diphenyl-1-butenyl)phenoxy]-N,N-dimethylethanamine] | 41% | 135% | 31.47^b,d ± 0.04 μm | 24.75^b,c ± 0.04 μm | 86% | 230% | 89% | 25 of 28 |  |  |  |  | 21% | 6 of 28 |

From US11452731B2, “Method of treating and preventing loss of cognition” (ENDORECHERCHE, INC., priority 2009, dated 2022)
